# Patent publication US11844846B2, “Styrylbenzothiazole derivatives and uses in imaging methods” (Emory University, priority 2018, dated 2023)
# Values joined by “and” are separate entries in the source; they are usually repeats but may differ in a detail not shown here. Equal entries are not always repeated. “Also recorded” adds a separate entry of the source. Where two headings read alike, the source gives them in different places.
# How the values were obtained:
# α-Syn PFFs = α-Syn PFFs (Homo sapiens, UniProt P37840); assay: fluorescence spectroscopy titration with α-Syn PFFs; type: binding; settings: 0.08 μM fibrils, 5 μM small molecule, result in words
# Experimental: (§1) A fluorescent titration assay was conducted. The fluorescent emission intensities were determined with 0.08 μM of various fibrils in the presence of 5 μM of the small molecules.
# (§2) To further investigate the selected compounds binding activities with α-Syn PFFs, fluorescence spectroscopy titrations were conducted to quantitatively measure compounds emission intensity when interacting with different concentrations of α-Syn PFFs. The UV spectrum of each compound was determined and selected for the optimal wavelength to conduct the fluorescence spectroscopic studies.
# Tau PFFs = Tau PFFs (Homo sapiens, UniProt P10636); assay: fluorescence spectroscopy titration with Tau PFFs; type: binding; settings: 0.08 μM fibrils, 5 μM small molecule; result in words
# Tau PFFs, sequence (P10636 whole entry): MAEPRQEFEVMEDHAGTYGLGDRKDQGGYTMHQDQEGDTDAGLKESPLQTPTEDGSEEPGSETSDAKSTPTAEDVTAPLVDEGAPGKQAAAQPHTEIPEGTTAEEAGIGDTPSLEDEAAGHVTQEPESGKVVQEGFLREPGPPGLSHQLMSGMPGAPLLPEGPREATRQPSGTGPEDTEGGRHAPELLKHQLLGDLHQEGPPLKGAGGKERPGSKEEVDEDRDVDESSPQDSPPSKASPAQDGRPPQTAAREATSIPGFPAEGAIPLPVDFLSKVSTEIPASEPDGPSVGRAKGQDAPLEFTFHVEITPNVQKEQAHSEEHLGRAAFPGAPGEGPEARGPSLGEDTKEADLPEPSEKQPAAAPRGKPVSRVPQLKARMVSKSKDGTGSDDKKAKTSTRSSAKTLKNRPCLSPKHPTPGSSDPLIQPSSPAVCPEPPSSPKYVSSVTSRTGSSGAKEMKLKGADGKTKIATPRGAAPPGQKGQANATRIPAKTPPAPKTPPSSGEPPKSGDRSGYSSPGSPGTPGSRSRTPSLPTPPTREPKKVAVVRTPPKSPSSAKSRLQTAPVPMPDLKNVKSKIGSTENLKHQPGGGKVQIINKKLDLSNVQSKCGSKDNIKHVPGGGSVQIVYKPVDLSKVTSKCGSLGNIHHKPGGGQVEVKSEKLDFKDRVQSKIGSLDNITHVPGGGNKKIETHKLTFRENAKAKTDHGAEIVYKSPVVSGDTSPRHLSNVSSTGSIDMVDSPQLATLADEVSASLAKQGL
# Experimental: as §1, §2
# α-Syn aggregated neurons = assay: neuronal α-Syn aggregation model, fluorescent microscopy; type: cell-based; settings: primary cultured neurons, AAV-α-Syn plus α-Syn PFFs
# Text: (§3) A series of derivatives were synthesized by including an amino group and a methyl group on benzothiazole to increase the brain permeability and fluorescent signals. The derivatives were subsequently subjected to α-Syn PFFs binding assay and counter-screening with Tau and Aβ PFFs. […] These compounds were screened on the neuronal α-Syn, Tau and Aβ aggregation model for the binding selectivity. Primary cultured neurons were infected with AAV-α-Syn, AAV-Tau FL for 7 days, then treated with α-Syn, Tau or Aβ PFFs. In a few days, the positive compounds were added in the primary neurons with indicated aggregates and analyzed under fluorescent microscopy.
# (§4) Primary cultured neurons were infected with AAV-α-Syn, AAV-Tau FL or AAV-APP fragment virus for 7 days, and then treated with α-Syn, Tau or Aβ PFFs by following the described protocols (Volpicelli-Daley et al., 2014). In a few days, the positive compounds were added in the primary neurons with indicated aggregation.
# [1] = tested on: neurons with Aβ or Tau aggregates; assay: neuronal Aβ and Tau aggregation models, fluorescent microscopy; type: cell-based; settings: primary cultured neurons
# Text: as §3, §4
# [2] = molecular target: T1, Lewy bodies in α-Syn A53T virus injected WT mice brain slices (Homo sapiens, UniProt P37840, A53T); assay: staining of mouse brain slices with Lewy bodies; type: binding
# T1 construct: from tissue; host or cells: brain (substantia nigra) of wild-type mice injected with α-Syn A53T virus
# Experimental: (§5) To further explore whether the positive compounds selectively bind to the Lewy bodies, α-Syn A53T patient-derived mutant virus injected WT mice brain slices were employed. These mice display extensive Lewy bodies in the SN.
# (§6) To further explore whether the positive compounds selectively bind to the Lewy bodies, a α-Syn A53T patient-derived mutant virus was injected into WT mice brain slices. These mice display extensive Lewy bodies in the Substantial nigra (SN). Moreover, P301S mice expressed neurofibrillary tangles (NFT). The Lewy bodies were labeled with p-α-Syn S129 antibody and the positive aggregates were also labeled with the fluorescent signals from the small molecules. […] However, it was worth noting that almost none of the tested compounds were reactive with NFT.
# [3] = molecular target: T2, LBs and LNs in DLB and MSA patient brains (Homo sapiens, UniProt P37840); assay: ex vivo screening on DLB and MSA patient brain sections; type: binding
# T2 construct: from tissue; host or cells: brain sections of DLB and MSA patients
# Text: (§7) Ex vivo screening was extended into human DLB, MSA and AD patient samples. […] Since there are detectable α-Syn aggregates in AD patient brains, these compounds colocalized with p-S129 positive α-Syn inclusions.
# (§8) The ex vivo screening was extended into human DLB, MSA and AD patient samples. Neurodegenerative disease of DLB (dementia with Lewy Bodies) and MSA belongs to synucleinopathies with well-defined Lewy bodies.
# [4] = tested on: senile plaques or NFT in AD; assay: ex vivo screening on AD patient brain sections; type: binding, human
# Text: as §7, §8
# [5] = plasma-brain ratio study / in vivo PK of EU compounds; set-up: species or system mouse
# Experimental: To address whether the selected compounds penetrate the brain, a plasma-brain ratio study was performed with EU04-03A, EU05-02A and EU05-02B.
# To test whether these compounds are brain permeable in vivo, in vivo PK profiling was conducted to determine brain exposure.
# Aβ PFFs = molecular target: T3, Aβ PFFs (Homo sapiens, UniProt P05067); assay: fluorescence spectroscopy titration with Aβ PFFs; type: binding; settings: 0.08 μM fibrils, 5 μM small molecule; result in words
# T3 construct: counter-screening with Tau and Aβ PFFs
# T3 sequence (P05067 672-713 limits assumed): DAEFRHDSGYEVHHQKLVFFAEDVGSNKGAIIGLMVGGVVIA
# Experimental: as §1, §2
# [6] = molecular target: pre-formed fibrils (PFFs) of α-Synuclein (Homo sapiens, UniProt P37840); assay: in vitro binding assay with α-Syn PFFs; settings: counter-screening, result in words
# Text: The general strategy that was employed to screen the candidate Lewy body PET agents is summarized as follows: (a) To perform in vitro binding assay with Pre-formed fibrils (PFFs) of α-Syn and counter-screening with Tau and Aβ PFFs; (b) To test the positive compounds in the neuronal models with aggregated α-Syn, Tau or […]; (c) To screen with the brain slides from α-Syn mutant A53T virus injected WT mice, and counter-screen with aged 3×Tg (containing both senile plaques and NFT), and aged Tau P301S (NFT) brain sections; (d) to screen the patient brain sections from DLB and MSA against AD; (e) To determine the binding kinetics between α-Syn PFFs and positive hits; (f) To determine the candidates in vivo brain/plasma (B/P) ratios and the brain permeability; (g) To determine the in vivo PET images in α-Syn A53T with candidates and compare its images in 5XFAD and Tau P301S mice.
# To perform in vitro binding assay, commercial compounds were screened (See FIG. 7B).
# as §3
# To perform in vitro binding assay, compounds were screened. […] An amino group and a methyl group in the benzothazole were added to increase its brain permeability and fluorescent signals. […] The synthesized derivatives were subsequently subjected to the α-Syn PFFs binding and counter-screen of Tau and Aβ PFFs as described above.
# [7] = molecular target: T4, senile plaques in 5×FAD and 3×Tg mice brain sections (Homo sapiens, UniProt P05067); assay: staining of mouse brain sections with senile plaques; type: binding
# T4 construct: Aβ-enriched senile plaques; from tissue; host or cells: brain sections of 5×FAD and 3×Tg mice
# T4 sequence (P05067 672-713 limits assumed): as above
# [8] = tested on: NFT in Tau P301S and 3×Tg mice brain sections; assay: staining of mouse brain sections with NFT; type: binding
# Experimental: as §5, §6
compound,measurement,setting,value
"COc1cc(/C=C/c2nc3cc(C)c(N(C)C)cc3s2)ccc1O [EU-005-02A, (E)-4-(2-(6-(dimethylamino)-5-methylbenzo[d]thiazol-2-yl)vinyl)-2-methoxyphenol]",binding to α-Syn PFFs by fluorescent emission intensity,α-Syn PFFs,strongly bound to both α-Syn and Tau PFFs
same,binding to α-Syn PFFs by fluorescent emission intensity,α-Syn PFFs; listed as EU-05-02A,but not EU-05-02A and EU-04-03A showed specific association with the PFFs
same,binding to Tau PFFs by fluorescent emission intensity,Tau PFFs,strongly bound to both α-Syn and Tau PFFs
same,fluorescent signal in α-Syn aggregated neurons,α-Syn aggregated neurons,positive for selective binding
same,fluorescent signal in α-Syn aggregated neurons,α-Syn aggregated neurons; listed as EU05-02A,positive signals in α-Syn aggregated neurons
same,fluorescent signal in neurons with Aβ or Tau aggregates,[1],negligible effects in neurons with Aβ or Tau aggregates
same,staining of Lewy bodies (p-α-Syn S129 positive),[2],signals were very weak
same,staining of LBs and LNs,[3],robust signals with LBs and LNs
same,staining of LBs and LNs,[3]; listed as EU05-02A,co-stained with Lewy bodies
same,"staining of senile plaques or NFT (Aβ, AT8 positive aggregates)",[4],barely co-stained with anti-AD or AT8 positive aggregate signals
same,"staining of senile plaques or NFT (Aβ, AT8 positive aggregates)",[4]; listed as EU05-02A,barely recognized AT8 positive Tau NFT or Aβ aggregates in AD brains
same,B/P,"[5]; Male ICR Mouse, 5 mg/kg IV, 0.50 h, single animals, 5 mg/kg",0.65 and 1.62 and 0.69
same,B/P,"[5]; Male ICR Mouse, 5 mg/kg IV, 1.00 h, single animals, 5 mg/kg",0.46 and 0.26
same,B/P,"[5]; Male ICR Mouse, 5 mg/kg IV, 2.00 h, single animals, 5 mg/kg",0.49 and 0.34
same,Kp at 0.5 h,"[5]; male, ICR, mouse, brain, iv, 5 mg/kg, Male ICR Mouse, 5 mg/kg IV, 0.50 h, read-out: B/P Mean",0.99
same,Kp at 1 h,"[5]; male, ICR, mouse, brain, iv, 5 mg/kg, Male ICR Mouse, 5 mg/kg IV, 1.00 h, single animals, read-out: B/P",0.52
same,Kp at 1 h,"[5]; male, ICR, mouse, brain, iv, 5 mg/kg, Male ICR Mouse, 5 mg/kg IV, 1.00 h, read-out: B/P Mean",0.41
same,Kp at 2 h,"[5]; male, ICR, mouse, brain, iv, 5 mg/kg, Male ICR Mouse, 5 mg/kg IV, 2.00 h, single animals, read-out: B/P",0.42
same,Kp at 2 h,"[5]; male, ICR, mouse, brain, iv, 5 mg/kg, Male ICR Mouse, 5 mg/kg IV, 2.00 h, read-out: B/P Mean",0.41
same,in vivo half-life / decay,"[5]; mice, i.v. 5 mg/kg, result in words",decayed 2 h after i.v. administration
"COc1cc(/C=C/c2nc3ccc(N(C)C)cc3s2)ccc1O [EU-004-02A, (E)-4-(2-(6-(dimethylamino)benzo[d]thiazol-2-yl)vinyl)-2-methoxyphenol]",staining of Lewy bodies (p-α-Syn S129 positive),[2],signals were very weak
"CN(C)c1ccc2nc(/C=C/c3ccc(O)c(Br)c3)sc2c1 [EU-004-02B, (E)-2-bromo-4-(2-(6-(dimethylamino)benzo[d]thiazol-2-yl)vinyl)phenol]",binding to α-Syn PFFs by fluorescent emission intensity,α-Syn PFFs,modest and weak binding activities toward these 3 PFFs
same,binding to Aβ PFFs by fluorescent emission intensity,Aβ PFFs,modest and weak binding activities toward these 3 PFFs
same,binding to Tau PFFs by fluorescent emission intensity,Tau PFFs,modest and weak binding activities toward these 3 PFFs
"Cc1ccc2c(c1)sc(-c1ccc(N(C)C)cc1)[n+]2C.[Cl-] [ThT, reference compound]",binding selectivity α-Syn versus Aβ or Tau PFFs,[6],non-selectively interacted with these PFFs; also recorded: non-selectively interacted with both α-Syn and Tau PFFs
same,staining of Lewy bodies (p-α-Syn S129 positive),[2],co-localized with all of these aggregates in the brain sections; also recorded: co-localized with p-S129 aggregates in the brain sections
same,staining of senile plaques,[7],co-localized with all of these aggregates in the brain sections
same,staining of NFT,[8],co-localized with all of these aggregates in the brain sections
"CCNc1ccc2nc(/C=C/c3ccc(O)c(OC)c3)sc2c1 [EU-004-03A, (E)-4-(2-(6-(ethylamino)benzo[d]thiazol-2-yl)vinyl)-2-methoxyphenol]",binding to α-Syn PFFs by fluorescent emission intensity,α-Syn PFFs,but not EU-05-02A and EU-04-03A showed specific association with the PFFs
same,fluorescent signal in α-Syn aggregated neurons,α-Syn aggregated neurons,positive for selective binding
same,fluorescent signal in α-Syn aggregated neurons,α-Syn aggregated neurons; listed as EU04-03A,positive signals in α-Syn aggregated neurons
same,fluorescent signal in neurons with Aβ or Tau aggregates,[1],negligible effects in neurons with Aβ or Tau aggregates
same,staining of LBs and LNs,[3],robust signals with LBs and LNs
same,staining of LBs and LNs,[3]; listed as EU04-03A,co-stained with Lewy bodies
same,"staining of senile plaques or NFT (Aβ, AT8 positive aggregates)",[4],barely co-stained with anti-AD or AT8 positive aggregate signals
same,"staining of senile plaques or NFT (Aβ, AT8 positive aggregates)",[4]; listed as EU04-03A,barely recognized AT8 positive Tau NFT or Aβ aggregates in AD brains
same,brain permeability,"[5]; mice, i.v., result in words, listed as EU04-03A",swiftly penetrated the brain and exhibited much higher brain permeability compared to EU05-02A; also recorded: higher brain permeability than EU05-02B
